For one assay, the system named is A549. Nature of the assay: Cytotoxicity against human A549 cells after 72 hrs by sulforhodamine B dye assay. The assay is classed as functional, cell-based. The note with it: A549, 72 h.
The next assay relates to P388. Nature of the assay: Cytotoxicity against mouse P388 cells after 48 hrs by tetrazolium-formazan method. Particulars: P388, 48 h. The format is functional, cell-based.

Structures are written as SMILES.

Broadly, the IC50 is the concentration that inhibits the measured activity by half. A high value points to a need for much substance. As to `CN(C)CCCN1C(=O)c2cccc3c2c(cc2nc(N)sc23)C1=O`, the values for the half-maximal inhibitory concentration (IC50) in the assay on A549 and with P388 were 772 nM and 1230 nM, respectively.

Turning to `CN(C)CCN1C(=O)c2cccc3cc4nc(N)sc4c(c23)C1=O`, the IC50 is 0.8 nM in the assay with A549 and 5 nM with P388.

For the compound `CN(C)CCN1C(=O)c2cccc3c2c(cc2nc(N)sc23)C1=O`, the IC50 came out at 500 nM in the assay on A549 and 1030 nM in the assay with P388.

As for `CN(C)CCCN1C(=O)c2cccc3cc4nc(N)sc4c(c23)C1=O`, the figures for the IC50 in the assay with A549 and in the assay with P388 were 21.8 nM and 294 nM, respectively.

As to `CN(C)CCN1C(=O)c2cccc3cc4ncsc4c(c23)C1=O`, the IC50 in the assay with A549 stood at 39.8 nM; with P388 it was 83.9 nM.

Regarding `CN(C)CCN1C(=O)c2cccc3cc4nc(O)sc4c(c23)C1=O`, the results for the IC50 in the assay on A549 and in the assay on P388 were 45 nM and 52.5 nM, respectively.

`CN(C)CCN1C(=O)c2cccc3cc4nc(Cl)sc4c(c23)C1=O`: the IC50 in the assay on A549 was 88 nM; with P388, 18.5 nM.

For `CN(C)CCNc1nc2cc3cccc4c3c(c2s1)C(=O)N(CCN(C)C)C4=O`, the values for the IC50 in the assay on A549 and in the assay on P388 were 30.6 nM and 8.31 nM, respectively.

For the origin of these results see ChEMBL document CHEMBL1139791, “Highly efficient antitumor agents of heterocycles containing sulfur atom: linear and angular thiazonaphthalimides against human lung cancer cell in vitro” (Bioorg Med Chem, 2007).
